Columns and labels:
Assay type in all cases: cell-based
human TLR7 = target: T1, human TLR7 (Homo sapiens, UniProt Q9NYK1); assay: TLR7 inhibition reporter assay (HEK-Blue, SEAP); conditions: HEK-Blue cells overexpressing human TLR7, ligand gardiquimod 2.5 μM, 22 hour incubation
T1 construct: host or cells: HEK-Blue cells
T1 sequence (Q9NYK1 27-1049): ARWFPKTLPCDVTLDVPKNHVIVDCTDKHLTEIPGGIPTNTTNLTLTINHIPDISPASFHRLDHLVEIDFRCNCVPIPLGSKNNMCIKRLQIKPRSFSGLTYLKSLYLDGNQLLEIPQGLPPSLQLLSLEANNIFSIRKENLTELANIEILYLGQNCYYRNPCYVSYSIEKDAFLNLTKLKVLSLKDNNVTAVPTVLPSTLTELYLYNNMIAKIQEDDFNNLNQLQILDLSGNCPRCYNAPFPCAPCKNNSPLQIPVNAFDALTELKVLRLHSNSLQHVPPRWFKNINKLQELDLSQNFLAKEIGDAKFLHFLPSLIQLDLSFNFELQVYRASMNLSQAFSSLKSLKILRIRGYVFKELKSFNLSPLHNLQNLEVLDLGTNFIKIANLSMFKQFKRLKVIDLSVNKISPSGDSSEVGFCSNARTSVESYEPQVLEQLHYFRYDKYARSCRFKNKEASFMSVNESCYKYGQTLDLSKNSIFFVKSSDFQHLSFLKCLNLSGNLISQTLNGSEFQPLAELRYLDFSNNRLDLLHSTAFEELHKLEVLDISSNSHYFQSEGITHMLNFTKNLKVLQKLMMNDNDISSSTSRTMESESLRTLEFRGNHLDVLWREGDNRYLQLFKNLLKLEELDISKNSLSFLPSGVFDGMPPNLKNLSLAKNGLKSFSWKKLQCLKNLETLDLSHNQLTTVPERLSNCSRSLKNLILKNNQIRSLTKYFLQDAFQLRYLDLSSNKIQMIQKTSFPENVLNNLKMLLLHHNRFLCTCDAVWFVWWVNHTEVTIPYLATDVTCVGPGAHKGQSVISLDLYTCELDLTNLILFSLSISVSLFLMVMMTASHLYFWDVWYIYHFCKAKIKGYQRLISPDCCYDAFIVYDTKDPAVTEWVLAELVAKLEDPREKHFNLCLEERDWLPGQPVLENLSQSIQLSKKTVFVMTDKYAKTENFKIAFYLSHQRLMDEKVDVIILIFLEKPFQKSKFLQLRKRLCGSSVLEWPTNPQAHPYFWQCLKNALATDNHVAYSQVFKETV
Method: (§1) TLR7/8/9 Inhibition Reporter Assays
(§2) HEK-Blue™-cells (Invivogen) overexpressing human TLR7. TLR8 or TLR9 receptors were used for screening inhibitors of these receptors using an inducible SEAP (secreted embryonic alkaline phosphatase) reporter gene under the control of the IFN-β minimal promoter fused to five NF-κB and AP-1-binding sites. Cells are seeded into Greiner 384 well plates (15000 cells per well) that are pre dispensed (by ECHO) with testing compounds in DMSO to yield a final dose response concentration range of 0.85 nM-50 μM. After a 60 minute compound pre-treatment in 37 degree incubator, the cells are then stimulated with a TLR7 ligand (gardiquimod at a final concentration of 2.5 μM), TLR8 ligand (R848 at a final concentration of 14.25 μM) or TLR9 ligand (ODN2006 at a final concentration of 200 nM) to activate NF-κB and AP-1 which induce the production of SEAP. After a 22 hour incubation at 37° C., 5% CO2, SEAP levels are determined with the addition of HEK-Blue™ Detection reagent (Invivogen), a cell culture medium that allows for detection of SEAP, according to manufacturer's specifications. The percent inhibition is determined as the % reduction in the HEK-Blue signal present in […].

human TLR9 = target: T2, human TLR9 (Homo sapiens, UniProt Q9NR96); assay: TLR9 inhibition reporter assay (HEK-Blue, SEAP); conditions: HEK-Blue cells overexpressing human TLR9, ligand ODN2006 200 nM, 22 hour incubation
T2 construct: host or cells: HEK-Blue cells
T2 sequence (Q9NR96 26-1032): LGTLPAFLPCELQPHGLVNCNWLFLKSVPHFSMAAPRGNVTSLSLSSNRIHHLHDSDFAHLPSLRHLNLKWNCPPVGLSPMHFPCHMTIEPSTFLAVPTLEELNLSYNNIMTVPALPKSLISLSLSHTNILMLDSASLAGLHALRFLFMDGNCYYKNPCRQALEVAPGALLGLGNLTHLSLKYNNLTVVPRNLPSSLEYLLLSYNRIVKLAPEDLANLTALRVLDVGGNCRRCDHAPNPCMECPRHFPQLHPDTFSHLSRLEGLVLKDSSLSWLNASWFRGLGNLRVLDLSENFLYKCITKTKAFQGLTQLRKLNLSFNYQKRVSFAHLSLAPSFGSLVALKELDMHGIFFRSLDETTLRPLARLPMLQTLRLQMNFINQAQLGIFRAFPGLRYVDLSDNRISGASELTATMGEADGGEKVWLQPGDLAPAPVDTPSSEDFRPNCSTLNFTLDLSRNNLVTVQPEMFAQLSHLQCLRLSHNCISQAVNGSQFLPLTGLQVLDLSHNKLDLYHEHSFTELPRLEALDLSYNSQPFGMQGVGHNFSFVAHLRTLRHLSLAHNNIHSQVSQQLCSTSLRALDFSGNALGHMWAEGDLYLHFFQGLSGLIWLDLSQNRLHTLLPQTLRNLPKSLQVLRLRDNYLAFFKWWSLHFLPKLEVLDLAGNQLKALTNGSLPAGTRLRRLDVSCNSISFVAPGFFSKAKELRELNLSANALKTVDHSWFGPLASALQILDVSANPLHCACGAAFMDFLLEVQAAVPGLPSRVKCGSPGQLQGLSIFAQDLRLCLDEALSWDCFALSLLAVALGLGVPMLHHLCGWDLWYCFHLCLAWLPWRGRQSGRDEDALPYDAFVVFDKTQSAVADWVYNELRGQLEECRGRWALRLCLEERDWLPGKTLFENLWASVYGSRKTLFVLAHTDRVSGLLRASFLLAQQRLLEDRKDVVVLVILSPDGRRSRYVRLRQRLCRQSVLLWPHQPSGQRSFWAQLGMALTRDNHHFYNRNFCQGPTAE
Method: as §1, §2

human TLR8 = target: T3, human TLR8 (Homo sapiens, UniProt Q9NR97); assay: TLR8 inhibition reporter assay (HEK-Blue, SEAP); conditions: HEK-Blue cells overexpressing human TLR8, ligand R848 14.25 μM, 22 hour incubation
T3 construct: host or cells: HEK-Blue cells
T3 sequence (Q9NR97 27-1041): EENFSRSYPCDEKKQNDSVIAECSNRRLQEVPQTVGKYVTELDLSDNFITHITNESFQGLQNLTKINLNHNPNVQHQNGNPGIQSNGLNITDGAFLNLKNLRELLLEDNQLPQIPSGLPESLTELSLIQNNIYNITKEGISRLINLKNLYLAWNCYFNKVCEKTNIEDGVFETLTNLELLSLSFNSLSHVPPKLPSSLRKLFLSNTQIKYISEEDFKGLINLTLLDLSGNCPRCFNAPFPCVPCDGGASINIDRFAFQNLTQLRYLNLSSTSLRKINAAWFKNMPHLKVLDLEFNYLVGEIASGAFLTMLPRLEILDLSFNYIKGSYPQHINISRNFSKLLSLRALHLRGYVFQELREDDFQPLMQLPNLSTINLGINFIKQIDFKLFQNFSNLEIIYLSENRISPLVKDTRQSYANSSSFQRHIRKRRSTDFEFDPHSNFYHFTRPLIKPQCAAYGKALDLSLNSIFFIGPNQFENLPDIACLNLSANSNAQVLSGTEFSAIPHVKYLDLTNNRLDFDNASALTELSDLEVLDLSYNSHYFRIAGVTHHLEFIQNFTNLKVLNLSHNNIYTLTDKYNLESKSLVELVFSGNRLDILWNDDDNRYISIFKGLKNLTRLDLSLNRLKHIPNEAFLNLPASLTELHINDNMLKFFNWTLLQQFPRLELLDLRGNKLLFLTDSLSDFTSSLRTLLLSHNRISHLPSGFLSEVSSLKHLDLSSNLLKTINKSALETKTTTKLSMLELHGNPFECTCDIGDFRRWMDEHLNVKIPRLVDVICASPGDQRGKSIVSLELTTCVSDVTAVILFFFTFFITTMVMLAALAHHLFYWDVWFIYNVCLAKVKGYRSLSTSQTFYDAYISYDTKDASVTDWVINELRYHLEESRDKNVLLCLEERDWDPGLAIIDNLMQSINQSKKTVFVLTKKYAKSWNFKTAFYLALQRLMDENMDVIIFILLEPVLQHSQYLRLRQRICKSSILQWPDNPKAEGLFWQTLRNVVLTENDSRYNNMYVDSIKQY
Method: as §1, §2

| SMILES | IC50 (human TLR7) [nM] | IC50 (human TLR9) [nM] | IC50 (human TLR8) [nM] |
| --- | --- | --- | --- |
| Cc1cc(C2CCN(C3CC4CCC(C3)N4CC(C)C)CC2)nc2c1nc(-c1ccc(S(C)(=O)=O)cc1)n2C (single isomer, unassigned) [Example 28, 5-(1-(8-isobutyl-8-azabicyclo[3.2.1]octan-3-yl)piperidin-4-yl)-3,7-dimethyl-2-(4-(methylsulfonyl)phenyl)-3H-imidazo[4,5-b]pyridine] | 1400 | 79 | > 50000 |
| Cc1cc(C2CCN(C3CC4CCC(C3)N4CC(C)C)CC2)nc2c1nc(-c1ccc(S(C)(=O)=O)cc1)n2C (single isomer, unassigned) [Example 29, 5-(1-(8-isobutyl-8-azabicyclo[3.2.1]octan-3-yl)piperidin-4-yl)-3,7-dimethyl-2-(4-(methylsulfonyl)phenyl)-3H-imidazo[4,5-b]pyridine] |  | 550 |  |
| COc1ccc(-c2nc3ncc(C4CCN(C5CCN(CC(C)C)CC5)CC4)cc3[nH]2)cc1OC [Example 12, 2-(3,4-dimethoxyphenyl)-6-(1′-isobutyl-[1,4′-bipiperidin]-4-yl)-1H-imidazo[4,5-b]pyridine] |  | 74 |  |
| COc1cc(-c2nc3c(C)cc(-c4ccc(N5CCN(C(C)C)CC5)cc4)nc3n2C)cn2ncnc12 [Example 45, 5-(4-(4-isopropylpiperazin-1-yl)phenyl)-2-(8-methoxy-[1,2,4]triazolo[1,5-a]pyridin-6-yl)-3,7-dimethyl-3H-imidazo[4,5-b]pyridine] | 5800 | 140 |  |
| COc1ccc(-c2nc3ncc(-c4ccc(N5CCN(C(C)C)CC5)cc4)cc3n2C2CC2)cc1OC [Example 50, 1-cyclopropyl-2-(3,4-dimethoxyphenyl)-6-(4-(4-isopropylpiperazin-1-yl)phenyl)-1H-imidazo[4,5-b]pyridine] |  | 320 | 3400 |
| COc1ccc(-c2nc3c(C)cc(-c4ccc(N5CC6(C5)CN(C(C)C)C6)cc4)nc3n2C)cc1OC [Example 59, 2-(3,4-dimethoxyphenyl)-5-(4-(6-isopropyl-2,6-diazaspiro[3.3]heptan-2-yl)phenyl)-3,7-dimethyl-3H-imidazo[4,5-b]pyridine] | 1100 | 860 |  |

Second part, the compound after the results:

| IC50 (human TLR7) [nM] | IC50 (human TLR9) [nM] | IC50 (human TLR8) [nM] | SMILES |
| --- | --- | --- | --- |
| 10000 | 58 | > 50000 | Cc1cc(C2CCN(C3CC4CCC(C3)N4C(C)C)CC2)nc2c1nc(-c1ccc(S(C)(=O)=O)cc1)n2C (single isomer, unassigned) [Example 26, 5-(1-(8-isopropyl-8-azabicyclo[3.2.1]octan-3-yl)piperidin-4-yl)-3,7-dimethyl-2-(4-(methylsulfonyl)phenyl)-3H-imidazo[4,5-b]pyridine] |
| 3700 | 300 | 24000 | Cc1cc(C2CCN(C3CC4CCC(C3)N4C(C)C)CC2)nc2c1nc(-c1ccc(S(C)(=O)=O)cc1)n2C (single isomer, unassigned) [Example 27, 5-(1-(8-isopropyl-8-azabicyclo[3.2.1]octan-3-yl)piperidin-4-yl)-3,7-dimethyl-2-(4-(methylsulfonyl)phenyl)-3H-imidazo[4,5-b]pyridine] |
| 2600 | 71 |  | Cc1cc(-c2ccc(CN3CC4(C3)CN(CC(C)C)C4)cc2)nc2c1nc(-c1ccc(S(C)(=O)=O)cc1)n2C1CC1 [Example 4, 3-cyclopropyl-5-(4-((6-isobutyl-2,6-diazaspiro[3.3]heptan-2-yl)methyl)phenyl)-7-methyl-2-(4-(methylsulfonyl)phenyl)-3H-imidazo[4,5-b]pyridine] |
| 15000 | 730 |  | Cc1cc(-c2ccc(CN3CC4(C3)CN(C3COC3)C4)cc2)nc2c1nc(-c1ccc(S(C)(=O)=O)cc1)n2C1CC1 [Example 6, 3-cyclopropyl-7-methyl-2-(4-(methylsulfonyl)phenyl)-5-(4-((6-(oxetan-3-yl)-2,6-diazaspiro[3.3]heptan-2-yl)methyl)phenyl)-3H-imidazo[4,5-b]pyridine] |
| > 50000 | 280 |  | CS(=O)(=O)c1ccc(-c2nc3ccc(-c4ccc(N5CCN(CCCN6CCOCC6)CC5)cc4)nc3n2C2CC2)cc1 [Example 56, 4-(3-(4-(4-(3-cyclopropyl-2-(4-(methylsulfonyl)phenyl)-3H-imidazo[4,5-b]pyridin-5-yl)phenyl)piperazin-1-yl)propyl) morpholine] |

Source: patent US20250177363A1, “SUBSTITUTED IMIDAZOPYRIDINYL COMPOUNDS USEFUL AS INHIBITORS OF TLR9” (Bristol-Myers Squibb Company, priority 2022, published 2025)
